# How the values were obtained:
# [1] = AUC infinity in C57BL6 mouse at 2 mg/kg, sc; format: ADME, organism-based; design: time infinity, route subcutaneous, dose 2 mg/kg; conditions: in vivo
# [2] = AUC infinity in C57BL6 mouse at 2 mg/kg, iv; format: ADME, organism-based; design: time infinity, route intravenous, dose 2 mg/kg; conditions: in vivo
# [3] = Cmax in C57BL6 mouse at 10 mg/kg, po; format: ADME, organism-based; design: route oral, dose 10 mg/kg; conditions: in vivo
# [4] = target: Atypical chemokine receptor 3 (Mus musculus, UniProt P56485); experiment: Binding affinity to mouse CXCR7
# Atypical chemokine receptor 3, sequence (P56485 whole entry): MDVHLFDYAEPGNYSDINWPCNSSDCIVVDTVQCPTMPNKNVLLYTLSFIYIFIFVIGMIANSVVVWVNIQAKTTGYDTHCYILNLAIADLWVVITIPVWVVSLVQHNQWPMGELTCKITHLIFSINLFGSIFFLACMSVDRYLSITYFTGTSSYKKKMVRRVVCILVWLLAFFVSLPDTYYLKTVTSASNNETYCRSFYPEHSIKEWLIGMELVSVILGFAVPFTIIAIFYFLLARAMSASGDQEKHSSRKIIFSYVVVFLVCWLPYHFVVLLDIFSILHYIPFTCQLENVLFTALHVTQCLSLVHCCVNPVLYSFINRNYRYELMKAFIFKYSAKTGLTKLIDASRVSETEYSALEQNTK
# [5] = Half life in C57BL6 mouse at 10 mg/kg, po; format: ADME, organism-based; conditions: in vivo
# [6] = Half life in C57BL6 mouse at 5 mg/kg, sc; format: ADME, organism-based; conditions: in vivo
# [7] = Bioavailability in C57BL6 mouse at 5 mg/kg, sc; format: ADME, organism-based; conditions: in vivo
# [8] = Half life in C57BL6 mouse at 2 mg/kg, iv; format: ADME, organism-based; conditions: in vivo
# [9] = Unbound cmax in C57BL6 mouse; format: ADME; conditions: in vivo
# [10] = AUC infinity in C57BL6 mouse at 10 mg/kg, po; format: ADME, organism-based; design: route oral, time infinity, dose 10 mg/kg; conditions: in vivo
# [11] = Cmax in C57BL6 mouse at 5 mg/kg, sc; format: ADME, organism-based; design: route subcutaneous, dose 5 mg/kg; conditions: in vivo
# [12] = Volume of distribution at steady state in C57BL6 mouse at 2 mg/kg, iv; format: ADME, organism-based; conditions: in vivo, read-out: Vdss
# [13] = Tmax in C57BL6 mouse at 10 mg/kg, po; format: ADME, organism-based; conditions: in vivo
# [14] = Oral bioavailability in C57BL6 mouse at 10 mg/kg; format: ADME, organism-based; conditions: in vivo
# [15] = Tmax in C57BL6 mouse at 5 mg/kg, sc; format: ADME, organism-based; conditions: in vivo
# [16] = Protein binding in C57BL6 mouse plasma assessed as unbound fraction; format: ADME, cell-free
# [17] = Lipophilicity, logD of the compound at pH 7.4 by shake flask method; format: physicochemical; conditions: buffer
AUC(0-inf) [1] [ng·h/mL],AUC(0-inf) [2] [ng·h/mL],Cmax [3] [ng/mL],Ki [4] [nM],half-life [5] [min],half-life [6] [min],bioavailability [7] [%],half-life [8] [min],fCmax [9] [µM],AUC(0-inf) [10] [ng·h/mL],Cmax [11] [ng/mL],Vd [12] [L/kg],Tmax [13] [min],bioavailability [14] [%],Tmax [15] [min],fraction unbound [16],logD [17],Structure (SMILES)
1530,864,185,155,78,30,71,12,1.56,199,1550,0.3,4.8,5,15,0.4,–,CCN(C)C(=O)N1C[C@@H]2[C@H](C1)[C@H]2C(=O)N[C@H]1CCN(c2nccn3ccnc23)C1
–,–,–,–,–,–,–,–,–,–,–,–,–,–,–,–,0.7,CCc1ccn2ccnc2c1N1CCCN(CC2CCN(C(=O)[C@H]3C[C@@H]4CC[C@H]3O4)CC2)CC1
–,–,–,–,–,–,–,–,–,–,–,–,–,–,–,–,3.4,COc1ccc2cccnc2c1N1CCCN(Cc2csc(-c3ccccc3)n2)CC1

# Reference: ChEMBL document CHEMBL4808233, “Discovery and evaluation of non-basic small molecule modulators of the atypical chemokine receptor CXCR7” (Bioorg Med Chem Lett, 2021)
